Laboratory results from PMC12090182, “Repurposing of the RIPK1-Selective Benzo[1,4]oxazepin-4-one Scaffold for the Development of a Type III LIMK1/2 Inhibitor” (ACS Chemical Biology, 2025).

How the values were obtained:
Assay in all cases: biochemical
Type in all cases: binding
[1] = target: 468 kinases including some pathogenic mutants (Homo sapiens, UniProt Q8TDR2); details: STK35 (Entrez STK35), 1000 nM; read-out: Percent Control
[2] = target: 468 kinases including some pathogenic mutants (Homo sapiens, UniProt Q9NQU5); details: PAK6 (Entrez PAK6), 1000 nM; read-out: Percent Control
[3] = target: 468 kinases including some pathogenic mutants (Homo sapiens, UniProt O43683); details: BUB1 (Entrez BUB1), 100 nM; read-out: Percent Control
468 kinases including some pathogenic mutants (Homo sapiens, UniProt O43683), sequence (O43683 whole entry, change not shown): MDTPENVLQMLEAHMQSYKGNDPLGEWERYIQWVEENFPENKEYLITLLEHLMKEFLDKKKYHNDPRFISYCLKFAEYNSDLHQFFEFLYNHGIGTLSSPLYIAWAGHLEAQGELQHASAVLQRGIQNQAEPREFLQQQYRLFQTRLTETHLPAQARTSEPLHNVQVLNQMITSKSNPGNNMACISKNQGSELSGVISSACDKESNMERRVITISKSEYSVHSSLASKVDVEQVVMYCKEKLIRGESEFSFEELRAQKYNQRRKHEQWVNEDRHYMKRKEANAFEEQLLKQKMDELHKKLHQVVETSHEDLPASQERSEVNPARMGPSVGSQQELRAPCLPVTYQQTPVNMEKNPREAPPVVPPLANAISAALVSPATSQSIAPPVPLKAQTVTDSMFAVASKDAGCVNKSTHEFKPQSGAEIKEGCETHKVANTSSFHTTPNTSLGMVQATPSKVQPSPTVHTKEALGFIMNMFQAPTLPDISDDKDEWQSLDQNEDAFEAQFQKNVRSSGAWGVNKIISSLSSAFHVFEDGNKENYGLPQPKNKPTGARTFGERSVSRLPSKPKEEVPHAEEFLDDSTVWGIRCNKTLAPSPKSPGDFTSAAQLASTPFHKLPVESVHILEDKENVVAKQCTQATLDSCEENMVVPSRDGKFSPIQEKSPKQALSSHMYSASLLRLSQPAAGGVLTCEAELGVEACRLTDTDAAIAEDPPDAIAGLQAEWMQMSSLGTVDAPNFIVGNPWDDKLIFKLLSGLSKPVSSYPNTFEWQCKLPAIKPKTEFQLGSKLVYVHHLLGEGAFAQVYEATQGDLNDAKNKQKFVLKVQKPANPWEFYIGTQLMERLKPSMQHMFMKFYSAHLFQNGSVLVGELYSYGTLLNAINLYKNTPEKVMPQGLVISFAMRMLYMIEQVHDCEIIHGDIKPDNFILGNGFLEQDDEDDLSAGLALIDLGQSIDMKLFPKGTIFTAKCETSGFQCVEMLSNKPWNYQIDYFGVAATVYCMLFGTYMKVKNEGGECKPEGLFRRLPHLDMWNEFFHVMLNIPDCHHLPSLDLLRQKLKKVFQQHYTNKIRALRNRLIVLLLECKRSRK

[4] = target: 468 kinases including some pathogenic mutants (Homo sapiens, UniProt Q02156); details: PRKCE (Entrez PRKCE), 1000 nM; read-out: Percent Control
[5] = target: 468 kinases including some pathogenic mutants (Homo sapiens, UniProt P00519, H396P)
[6] = target: 468 kinases including some pathogenic mutants (Homo sapiens, UniProt Q8N4C8); details: MINK (Entrez MINK1), 100 nM; read-out: Percent Control
[7] = target: 468 kinases including some pathogenic mutants (Homo sapiens, UniProt P29376); details: LTK (Entrez LTK), 100 nM; read-out: Percent Control
[8] = target: 468 kinases including some pathogenic mutants (Homo sapiens, UniProt P0C264); details: SgK110 (Entrez SgK110), 1000 nM; read-out: Percent Control
468 kinases including some pathogenic mutants (Homo sapiens, UniProt P0C264), sequence (P0C264 whole entry, change not shown): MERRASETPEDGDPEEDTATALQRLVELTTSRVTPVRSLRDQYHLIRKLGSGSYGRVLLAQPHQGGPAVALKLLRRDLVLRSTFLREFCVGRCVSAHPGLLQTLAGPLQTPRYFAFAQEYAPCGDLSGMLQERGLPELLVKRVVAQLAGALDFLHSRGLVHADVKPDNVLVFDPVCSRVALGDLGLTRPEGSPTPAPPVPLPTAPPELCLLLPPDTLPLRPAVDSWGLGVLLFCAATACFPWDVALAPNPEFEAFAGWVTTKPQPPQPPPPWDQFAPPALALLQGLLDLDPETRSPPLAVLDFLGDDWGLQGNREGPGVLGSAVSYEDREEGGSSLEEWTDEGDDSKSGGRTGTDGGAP

[9] = target: 468 kinases including some pathogenic mutants (Homo sapiens, UniProt P45984); details: JNK2 (Entrez MAPK9), 100 nM; read-out: Percent Control
468 kinases including some pathogenic mutants (Homo sapiens, UniProt P45984), sequence (P45984 whole entry, change not shown): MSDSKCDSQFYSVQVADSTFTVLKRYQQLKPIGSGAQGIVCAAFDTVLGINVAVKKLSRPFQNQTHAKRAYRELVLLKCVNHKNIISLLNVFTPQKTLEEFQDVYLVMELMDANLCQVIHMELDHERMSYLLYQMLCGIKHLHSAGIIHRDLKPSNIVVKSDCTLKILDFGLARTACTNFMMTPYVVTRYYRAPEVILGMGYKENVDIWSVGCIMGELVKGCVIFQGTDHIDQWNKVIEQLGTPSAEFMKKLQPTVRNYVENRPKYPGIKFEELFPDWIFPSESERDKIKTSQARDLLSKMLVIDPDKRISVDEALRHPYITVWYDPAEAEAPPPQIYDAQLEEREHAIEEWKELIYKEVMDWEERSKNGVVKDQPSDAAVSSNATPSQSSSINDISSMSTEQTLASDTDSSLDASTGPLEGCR

[10] = target: 468 kinases including some pathogenic mutants (Homo sapiens, UniProt Q15349); details: read-out: Percent Control
468 kinases including some pathogenic mutants (Homo sapiens, UniProt Q15349), sequence (Q15349 whole entry, change not shown): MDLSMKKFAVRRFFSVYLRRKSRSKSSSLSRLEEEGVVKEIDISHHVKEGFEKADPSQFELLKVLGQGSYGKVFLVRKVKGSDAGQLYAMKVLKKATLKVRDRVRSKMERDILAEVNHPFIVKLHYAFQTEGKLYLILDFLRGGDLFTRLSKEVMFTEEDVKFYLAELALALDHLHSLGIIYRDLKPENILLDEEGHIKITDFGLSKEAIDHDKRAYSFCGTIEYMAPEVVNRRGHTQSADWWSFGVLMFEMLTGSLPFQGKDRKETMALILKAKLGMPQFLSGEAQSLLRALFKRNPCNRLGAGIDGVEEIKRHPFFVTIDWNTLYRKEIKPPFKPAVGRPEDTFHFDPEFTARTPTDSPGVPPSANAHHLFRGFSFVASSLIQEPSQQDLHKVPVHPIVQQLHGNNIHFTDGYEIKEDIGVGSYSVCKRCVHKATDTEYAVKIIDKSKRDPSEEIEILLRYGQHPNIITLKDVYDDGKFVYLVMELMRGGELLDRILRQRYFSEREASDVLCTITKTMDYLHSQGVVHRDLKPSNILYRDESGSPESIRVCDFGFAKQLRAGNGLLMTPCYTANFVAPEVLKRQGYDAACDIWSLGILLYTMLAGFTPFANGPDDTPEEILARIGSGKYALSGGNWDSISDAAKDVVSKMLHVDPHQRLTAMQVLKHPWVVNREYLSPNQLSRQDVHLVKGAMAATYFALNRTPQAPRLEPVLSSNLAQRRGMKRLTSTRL

[11] = target: 468 kinases including some pathogenic mutants (Homo sapiens, UniProt Q13470); details: TNK1 (Entrez TNK1), 100 nM; read-out: Percent Control
[12] = target: 468 kinases including some pathogenic mutants (Homo sapiens, UniProt Q02750); details: MEK1 (Entrez MAP2K1), 1000 nM; read-out: Percent Control
[13] = target: 468 kinases including some pathogenic mutants (Homo sapiens, UniProt Q16832); details: DDR2 (Entrez DDR2), 100 nM; read-out: Percent Control
[14] = target: 468 kinases including some pathogenic mutants (Homo sapiens, UniProt Q96PN8); details: TSSK3 (Entrez TSSK3), 1000 nM; read-out: Percent Control
[15] = target: 468 kinases including some pathogenic mutants (Homo sapiens, UniProt Q13705); details: ACVR2B (Entrez ACVR2B), 100 nM; read-out: Percent Control
[16] = target: 468 kinases including some pathogenic mutants (Homo sapiens, UniProt P10721, V559D/V654A); details: read-out: Percent Control
[17] = target: 468 kinases including some pathogenic mutants (Homo sapiens, UniProt Q15208); details: NDR1 (Entrez STK38), 100 nM; read-out: Percent Control
[18] = target: 468 kinases including some pathogenic mutants (Homo sapiens, UniProt P51812); details: read-out: Percent Control
468 kinases including some pathogenic mutants (Homo sapiens, UniProt P51812), sequence (P51812 whole entry, change not shown): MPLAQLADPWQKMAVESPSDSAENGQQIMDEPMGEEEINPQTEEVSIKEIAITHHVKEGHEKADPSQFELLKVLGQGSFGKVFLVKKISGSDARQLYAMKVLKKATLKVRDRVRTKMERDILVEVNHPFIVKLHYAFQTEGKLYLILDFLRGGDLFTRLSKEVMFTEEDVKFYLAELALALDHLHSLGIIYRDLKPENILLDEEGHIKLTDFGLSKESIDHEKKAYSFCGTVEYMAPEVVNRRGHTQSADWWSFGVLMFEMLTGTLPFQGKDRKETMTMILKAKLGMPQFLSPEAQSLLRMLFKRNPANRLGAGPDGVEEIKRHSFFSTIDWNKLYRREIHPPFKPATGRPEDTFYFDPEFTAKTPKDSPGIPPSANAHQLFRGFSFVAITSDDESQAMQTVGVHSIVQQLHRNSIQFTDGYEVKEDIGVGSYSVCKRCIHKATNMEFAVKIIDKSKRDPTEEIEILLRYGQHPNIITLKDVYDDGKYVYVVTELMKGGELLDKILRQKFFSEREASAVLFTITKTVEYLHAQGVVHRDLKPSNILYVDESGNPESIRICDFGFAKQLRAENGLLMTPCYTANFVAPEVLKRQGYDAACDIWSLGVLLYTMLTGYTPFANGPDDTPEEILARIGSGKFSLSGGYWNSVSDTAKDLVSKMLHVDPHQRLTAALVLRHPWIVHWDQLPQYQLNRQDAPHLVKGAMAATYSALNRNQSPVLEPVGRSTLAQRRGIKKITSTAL

[19] = target: 468 kinases including some pathogenic mutants (Homo sapiens, UniProt P51817); details: PRKX (Entrez PRKX), 100 nM; read-out: Percent Control
[20] = target: 468 kinases including some pathogenic mutants (Homo sapiens, UniProt Q2M2I8); details: AAK1 (Entrez AAK1), 100 nM; read-out: Percent Control
[21] = target: 468 kinases including some pathogenic mutants (Homo sapiens, UniProt Q8NEV4); details: MYO3A (Entrez MYO3A), 100 nM; read-out: Percent Control
[22] = target: 468 kinases including some pathogenic mutants (Homo sapiens, UniProt O96013); details: PAK4 (Entrez PAK4), 100 nM; read-out: Percent Control
[23] = target: 468 kinases including some pathogenic mutants (Homo sapiens, UniProt Q7L7X3); details: TAOK1 (Entrez TAOK1), 1000 nM; read-out: Percent Control
[24] = target: 468 kinases including some pathogenic mutants (Homo sapiens, UniProt P28482); details: ERK2 (Entrez MAPK1), 100 nM; read-out: Percent Control
[25] = target: 468 kinases including some pathogenic mutants (Homo sapiens, UniProt P36888, R834Q); details: read-out: Percent Control
[26] = target: 468 kinases including some pathogenic mutants (Homo sapiens, UniProt P29597); details: read-out: Percent Control
468 kinases including some pathogenic mutants (Homo sapiens, UniProt P29597), sequence (P29597 whole entry, change not shown): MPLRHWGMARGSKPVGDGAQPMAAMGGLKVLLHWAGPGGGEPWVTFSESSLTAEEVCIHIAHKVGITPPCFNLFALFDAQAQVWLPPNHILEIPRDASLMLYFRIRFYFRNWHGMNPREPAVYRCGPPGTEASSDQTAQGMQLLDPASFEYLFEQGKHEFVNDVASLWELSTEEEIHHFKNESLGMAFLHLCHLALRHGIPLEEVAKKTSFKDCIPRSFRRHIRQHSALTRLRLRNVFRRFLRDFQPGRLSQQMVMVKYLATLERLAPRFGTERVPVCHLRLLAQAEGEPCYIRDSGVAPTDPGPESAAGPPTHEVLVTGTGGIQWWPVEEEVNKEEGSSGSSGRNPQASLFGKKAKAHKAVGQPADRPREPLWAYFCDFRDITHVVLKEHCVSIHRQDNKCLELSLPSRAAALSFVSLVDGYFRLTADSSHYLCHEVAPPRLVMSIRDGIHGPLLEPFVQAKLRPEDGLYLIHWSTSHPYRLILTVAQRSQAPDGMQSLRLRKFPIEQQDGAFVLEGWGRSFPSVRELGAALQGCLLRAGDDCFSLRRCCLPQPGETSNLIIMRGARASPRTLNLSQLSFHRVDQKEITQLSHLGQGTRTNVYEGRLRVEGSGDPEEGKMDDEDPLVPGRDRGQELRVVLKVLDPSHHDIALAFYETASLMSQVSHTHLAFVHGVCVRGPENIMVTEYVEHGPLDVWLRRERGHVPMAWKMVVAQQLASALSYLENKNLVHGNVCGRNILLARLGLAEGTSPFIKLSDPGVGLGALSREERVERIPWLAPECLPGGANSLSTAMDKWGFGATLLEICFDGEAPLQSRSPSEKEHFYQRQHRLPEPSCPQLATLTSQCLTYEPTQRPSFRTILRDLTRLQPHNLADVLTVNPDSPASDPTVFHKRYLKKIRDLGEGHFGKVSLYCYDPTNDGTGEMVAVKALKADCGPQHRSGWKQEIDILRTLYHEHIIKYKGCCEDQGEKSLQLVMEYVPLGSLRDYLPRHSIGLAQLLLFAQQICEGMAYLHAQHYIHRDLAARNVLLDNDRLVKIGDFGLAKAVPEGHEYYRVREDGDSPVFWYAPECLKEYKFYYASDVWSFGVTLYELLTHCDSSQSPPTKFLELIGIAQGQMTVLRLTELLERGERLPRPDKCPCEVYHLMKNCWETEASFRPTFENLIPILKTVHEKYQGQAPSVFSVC

[27] = target: 468 kinases including some pathogenic mutants (Homo sapiens, UniProt P31152); details: ERK4 (Entrez MAPK4), 100 nM; read-out: Percent Control
[28] = target: 468 kinases including some pathogenic mutants (Homo sapiens, UniProt P06213); details: INSR (Entrez INSR), 100 nM; read-out: Percent Control

468 kinases including some pathogenic mutants (Homo sapiens, UniProt Q8TDR2), sequence (Q8TDR2 whole entry, change not shown): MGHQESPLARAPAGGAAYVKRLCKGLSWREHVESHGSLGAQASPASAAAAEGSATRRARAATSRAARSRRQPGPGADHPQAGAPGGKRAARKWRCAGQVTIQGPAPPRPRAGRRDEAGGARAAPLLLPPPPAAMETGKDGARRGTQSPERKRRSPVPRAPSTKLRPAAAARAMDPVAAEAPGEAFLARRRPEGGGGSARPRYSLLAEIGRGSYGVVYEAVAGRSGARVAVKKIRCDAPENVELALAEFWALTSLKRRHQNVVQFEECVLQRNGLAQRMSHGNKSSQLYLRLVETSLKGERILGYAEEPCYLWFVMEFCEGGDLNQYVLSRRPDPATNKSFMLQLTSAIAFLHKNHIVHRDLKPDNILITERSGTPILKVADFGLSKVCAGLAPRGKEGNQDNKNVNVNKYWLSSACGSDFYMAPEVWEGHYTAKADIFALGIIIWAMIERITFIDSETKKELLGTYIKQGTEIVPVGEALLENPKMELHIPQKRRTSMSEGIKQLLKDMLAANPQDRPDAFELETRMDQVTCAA

CN1C(=O)[C@@H](N2CCc3c(nn(Cc4ccccc4)c3C(N)=O)C2=O)COc2cc(Cl)ccc21 [Compound 10, (S)-2-benzyl-6-(8-chloro-5-methyl-4-oxo-2,3,4,5-tetrahydrobenzo[b][1,4]oxazepin-3-yl)-7-oxo-4,5,6,7-tetrahydro-2H-pyrazolo[3,4-c]pyridine-3-carboxamide]
remaining activity at 1 µM [1]: 100%
remaining activity at 1 µM [2]: 100%
remaining activity at 0.1 µM [3]: 84%
remaining activity at 1 µM [4]: 100%
Percent Control ([5]; listed as LIJTF500025): 73%
remaining activity at 0.1 µM ([5]; read-out: Percent Control): 67%
remaining activity at 0.1 µM [6]: 94%
remaining activity at 0.1 µM [7]: 54%
remaining activity at 1 µM [8]: 100%
remaining activity at 0.1 µM [9]: 80%
remaining activity at 0.1 µM ([10]; RSK3(Kin.Dom.1-N-terminal) (Entrez RPS6KA2), 100 nM): 100%
remaining activity at 1 µM ([10]; RSK3(Kin.Dom.2-C-terminal) (Entrez RPS6KA2), 1000 nM): 100%
remaining activity at 0.1 µM [11]: 78%
remaining activity at 1 µM [12]: 100%
remaining activity at 0.1 µM [13]: 84%
remaining activity at 1 µM [14]: 100%
remaining activity at 0.1 µM [15]: 92%
remaining activity at 0.1 µM [16]: 82%
remaining activity at 0.1 µM [17]: 86%
remaining activity at 1 µM ([18]; RSK2(Kin.Dom.1-N-terminal) (Entrez RPS6KA3), 1000 nM): 100%
remaining activity at 0.1 µM ([18]; RSK2(Kin.Dom.2-C-terminal) (Entrez RPS6KA3), 100 nM): 74%
remaining activity at 0.1 µM [19]: 77%
remaining activity at 0.1 µM [20]: 72%
remaining activity at 0.1 µM [21]: 83%
remaining activity at 0.1 µM [22]: 100%
remaining activity at 1 µM [23]: 100%
remaining activity at 0.1 µM [24]: 77%
remaining activity at 0.1 µM [25]: 81%
remaining activity at 0.1 µM ([26]; TYK2(JH1domain-catalytic) (Entrez TYK2), 100 nM): 72%
remaining activity at 1 µM [26]: 100%
remaining activity at 0.1 µM [27]: 86%
remaining activity at 0.1 µM [28]: 100%
